According to ChEMBL document CHEMBL1201862, “PubChem BioAssay data set” (2004):
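Five compound concentrations were applied to cells in 96-well plates for 48 hours; endpoints were derived by simple linear interpolation of the resulting dose-response curve. GI50 = concentration required for 50% inhibition of growth.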 Activity calls are given as the source filed them. Rule as the data show it: active = GI50 up to about 1.1 µM and inactive = higher.

Legend:
Assay in all cases: NCI anticancer screen, dose series, 48 h
SK-MEL-28 = system: SK-MEL-28
Malme-3M = system: Malme-3M
SR = system: SR
SF-268 = system: SF-268
EKVX = system: EKVX
SW-620 = system: SW-620
KM12 = system: KM12
A549 = system: A549
SN12C = system: SN12C
OVCAR-4 = system: OVCAR-4
SK-MEL-5 = system: SK-MEL-5
A498 = system: A498
SK-MEL-2 = system: SK-MEL-2
HOP-92 = system: HOP-92

Measured: GI50

O=C1NC2C(CCO)CC=C[C@H]2c2cc3c(cc21)OCO3 (stereo not given in full)
inactive: SK-MEL-28 > 100 µM | Malme-3M > 100 µM | SR > 100 µM | SF-268 > 100 µM | EKVX > 100 µM | SW-620 > 100 µM | KM12 > 100 µM | A549 > 100 µM | SN12C > 100 µM

CCCC1C(=O)CCc2c(OC)ccc(OC)c21 (stereo not given)
inactive: OVCAR-4 > 100 µM | Malme-3M > 100 µM | SK-MEL-5 > 100 µM | SF-268 91.8 µM | EKVX > 100 µM | A498 > 100 µM | SW-620 > 100 µM | SK-MEL-2 > 100 µM | KM12 > 100 µM | A549 > 100 µM | SN12C > 100 µM

CC(C)(C)C1CCC2c3c([nH]c4ncccc34)C3C(=O)N(c4ccccc4)C(=O)C3C2C1 (stereo not given)
inactive: OVCAR-4 > 100 µM | SK-MEL-28 > 100 µM | Malme-3M > 100 µM | SK-MEL-5 > 100 µM | SR 36.1 µM | SF-268 > 100 µM | HOP-92 > 100 µM | EKVX > 100 µM | SW-620 > 100 µM | SK-MEL-2 > 100 µM | KM12 > 100 µM | A549 > 100 µM | SN12C 88.1 µM

CCCCCCCCCCCCCC/C(C(=O)OC)=C(/O)C(=O)OCC
inactive: OVCAR-4 58.9 µM | SK-MEL-28 24 µM | Malme-3M > 100 µM | SK-MEL-5 > 100 µM | SF-268 25.8 µM | HOP-92 25.5 µM | EKVX 37.2 µM | A498 33.2 µM | SW-620 > 100 µM | SK-MEL-2 16.6 µM | KM12 19.9 µM | A549 26.4 µM | SN12C > 100 µM

NC1=NCCC1(c1ccccc1)c1ccccn1 (stereo not given)
inactive: OVCAR-4 > 100 µM | SK-MEL-28 > 100 µM | Malme-3M > 100 µM | SK-MEL-5 > 100 µM | SF-268 > 100 µM | HOP-92 > 100 µM | EKVX > 100 µM | A498 > 100 µM | SW-620 > 100 µM | SK-MEL-2 > 100 µM | KM12 > 100 µM | A549 > 100 µM | SN12C > 100 µM

Cc1cc(NS(=O)(=O)c2ccc(NC(=O)c3cccc4c(Nc5ccc(S(=O)(=O)Nc6cc(C)on6)cc5)c5ccc(Cl)cc5nc34)cc2)no1
inactive: OVCAR-4 49.5 µM | SK-MEL-28 41 µM | Malme-3M > 100 µM | SK-MEL-5 56.4 µM | SF-268 34.5 µM | HOP-92 24.3 µM | EKVX > 100 µM | A498 55 µM | SW-620 76.7 µM | SK-MEL-2 > 100 µM | KM12 69.2 µM | A549 61.1 µM | SN12C 51.2 µM

NC1=NC2=C(CCCC2)C(c2cccs2)S1 (stereo not given)
inactive: OVCAR-4 86.5 µM | SK-MEL-28 > 100 µM | Malme-3M 92.9 µM | SK-MEL-5 54.5 µM | SF-268 95.1 µM | HOP-92 47.8 µM | EKVX > 100 µM | A498 72.6 µM | SW-620 > 100 µM | SK-MEL-2 > 100 µM | KM12 > 100 µM | A549 93.3 µM | SN12C > 100 µM

CC1=C(c2cc(C(=O)Nc3ccc(Cl)cc3)nc(S)n2)Sc2ccccc2N1
inactive: OVCAR-4 > 100 µM | SK-MEL-28 > 100 µM | Malme-3M > 100 µM | SK-MEL-5 > 100 µM | SF-268 > 100 µM | HOP-92 > 100 µM | EKVX > 100 µM | A498 > 100 µM | SW-620 > 100 µM | SK-MEL-2 > 100 µM | KM12 > 100 µM | A549 > 100 µM | SN12C > 100 µM

CC[N+](CC)(CC)Cc1cn(S(=O)(=O)c2ccccc2)c2ccccc12
inactive: OVCAR-4 > 100 µM | SK-MEL-28 > 100 µM | Malme-3M > 100 µM | SK-MEL-5 > 100 µM | SR > 100 µM | SF-268 > 100 µM | HOP-92 > 100 µM | SW-620 > 100 µM | SK-MEL-2 > 100 µM | KM12 > 100 µM | A549 > 100 µM

C/C(=N/O)C1CC=C(S(=O)(=O)c2ccccc2)C1 (stereo not given)
inactive: OVCAR-4 > 100 µM | SK-MEL-28 > 100 µM | Malme-3M > 100 µM | SR > 100 µM | SF-268 > 100 µM | HOP-92 > 100 µM | SW-620 > 100 µM | SK-MEL-2 > 100 µM | KM12 > 100 µM | A549 > 100 µM | SN12C > 100 µM

CC1=NN(c2ccccc2)C(=O)C1/N=N/c1ccc(Br)c(C)c1 (stereo not given)
inactive: OVCAR-4 > 100 µM | SK-MEL-28 > 100 µM | Malme-3M > 100 µM | SK-MEL-5 > 100 µM | SF-268 > 10 µM | HOP-92 > 100 µM | EKVX > 100 µM | A498 > 100 µM | SW-620 > 100 µM | SK-MEL-2 > 100 µM | KM12 > 100 µM | A549 > 100 µM | SN12C > 100 µM

Cc1cc([N+](=O)[O-])c(C)c2c1[nH]c1ccc(Cl)cc12
inactive: OVCAR-4 > 100 µM | SK-MEL-28 > 100 µM | Malme-3M > 100 µM | SK-MEL-5 > 100 µM | SR 45.7 µM | SF-268 > 100 µM | EKVX > 100 µM | SW-620 71.9 µM | SK-MEL-2 > 100 µM | KM12 > 100 µM | A549 > 100 µM | SN12C > 100 µM

CCN(CC)CCCNC(=O)Cc1ccccc1Nc1c(Cl)cccc1Cl
inactive: OVCAR-4 15.7 µM | SK-MEL-28 12.5 µM | SK-MEL-5 3.85 µM | SR 9.48 µM | SF-268 16.1 µM | EKVX 13.7 µM | SW-620 16.8 µM | KM12 19.8 µM | A549 18.3 µM | SN12C 14.5 µM

CN(C)c1ccc(C(C#N)NNC(=O)Cc2ccccc2)cc1 (stereo not given)
inactive: OVCAR-4 > 100 µM | SK-MEL-28 > 100 µM | Malme-3M > 100 µM | SK-MEL-5 > 100 µM | SR > 100 µM | SF-268 > 100 µM | HOP-92 > 100 µM | SW-620 > 100 µM | SK-MEL-2 > 100 µM | KM12 > 100 µM | A549 > 100 µM | SN12C > 100 µM

CCOC(=O)c1ccc(/N=N\c2ccc(N(CCC#N)CCC#N)cc2C)cc1
inactive: OVCAR-4 > 100 µM | Malme-3M > 100 µM | SK-MEL-5 > 100 µM | EKVX > 100 µM | A498 > 100 µM | SW-620 > 100 µM | SK-MEL-2 > 100 µM | KM12 > 100 µM | A549 > 100 µM | SN12C > 100 µM

Nc1c(-c2ccc(Cl)cc2)[n+]([O-])c2ccccc2[n+]1[O-]
inactive: OVCAR-4 69.3 µM | SK-MEL-28 76.9 µM | Malme-3M > 100 µM | SK-MEL-5 > 100 µM | SF-268 59.8 µM | HOP-92 28.1 µM | EKVX > 100 µM | A498 95.3 µM | SW-620 > 100 µM | SK-MEL-2 > 100 µM | KM12 > 100 µM | A549 > 100 µM | SN12C 95.1 µM
